# In patent publication US20230241024A1, “METHODS OF TREATING METABOLIC DISORDERS” (Sunovion Pharmaceuticals Inc., priority 2021, published 2023):
# Columns and labels:
# [1] = system: female Sprague Dawley rats fed on a high-fat powdered diet; assay: Body weight, food intake, body composition and liver triglycerides, once daily dosing up to 15 days, high-fat diet rats (Example 2.1); format: in vivo, rat; settings: Olanzapine 3 mg/kg po
# Method: Body weight and food and water intake were assessed daily.
# Animals: Seventy-four (2 spares) female Sprague Dawley rats (weight range 200-300 g) were ordered from Charles River, Margate, Kent. Rats were singly housed in cages with sawdust bedding and enrichment at an ambient temperature of 21 ± 2° C. Upon arrival (Thursday), rats were weighed and given wet mash to aid recovery from transport. Rats were weighed the following day and on the Monday of the following week. Animals were maintained on a reverse-phase light-dark cycle (lights off for 8 hours from 10:00-18 :00 h) during which time the room was illuminated by red light. Rats were weighed on the Friday and Monday of the following week. […] Except for 12 animals (Group F), all animals had free access to a high-fat powdered diet (VRF1 plus 20% lard). […] All rats had access to filtered water at all times. The diets were contained in glass feeding jars with aluminum lids (Solmedia Laboratory Suppliers. Romford. Essex). […] Animals were accustomed to these conditions for at least two weeks before experimentation.
# Experimental Procedure: Animals underwent a 3-day baseline run-in period during which time all rats were dosed once a day with vehicle. Dosing was timed to start at approximately 08:45 so that the mid-point was approximately the time of lights out. Animals, food and water were weighed at the time of dosing. Towards the end of the baseline period, animals were weighed (to the nearest 0.1 g using an electronic top-pan balance) and allocated by a statistician. The spare animals were humanely withdrawn from the study.
# Dosing (in a randomized order) began at approximately 08:45 h each day (0 h), i.e., the mid-point of dosing is approximately at the time of lights out. Body weight, food and water intake was recorded daily at the time of dosing. All rats were observed before and after dosing and comments on condition were noted as appropriate. On the afternoon of Day 14 (approx. 16:00) animals were fasted to a timed schedule. The experiment ended the following morning on Day 15. On the morning of Day 15, final readings were undertaken 16 hour post-fast (i.e., body weight measurements). Animals were then dosed (as described). Four hours later, a blood sample (1 mL) was taken from the lateral tail vein into tubes containing lithium heparin. […] Animals were then terminated by a Schedule 1 method (exposure to an increasing concentration of C02 with death confirmed by cervical dislocation). A terminal blood sample (circa 4 mL) was taken into an EDTA-coated tube and a single plasma aliquot (approximately 1 mL) was stored frozen (approx. -80° C.) in a clean aliquot tube. The liver was dissected and the caudate lobe removed. Both the caudate lobe and the remaining liver were weighed and stored frozen separately (on dry ice and then transferred to a freezer at approx. -80° C.). The caudate lobe underwent option further analysis of liver triglycerides.
# [2] = system: female Sprague Dawley rats previously treated with olanzapine; assay: Body weight, food intake, body composition and liver triglycerides of rats previously treated with olanzapine and switched (Example 2.2); format: in vivo, rat
# Method: Rats were singly housed in cages with sawdust bedding and enrichment at an ambient temperature of 21±2° C. Upon arrival (Thursday), rats were weighed and given wet mash to aid recovery from transport. Rats were weighed the following day and the Monday of the following week. Animals were maintained on a reverse-phase light-dark cycle (lights off for 8 h from 10:00-18:00 h) during which time the room was illuminated by red light. Rats were weighed on the Friday and Monday of the following week. […] All animals had free access to a high-fat powdered diet (VRF1 plus 20% lard) and all rats had access to filtered water at all times. The diets were contained in glass feeding jars with aluminum lids (Solmedia Laboratory Suppliers, Romford, Essex). […] Animals were accustomed to these conditions for at least two weeks before experimentation.
# Dosing was timed to start at approximately 08:45 so that the mid-point was approximately the time of lights out. Animals, food and water were weighed at the time of dosing. Towards the end of this baseline period, animals were weighed (to the nearest 0.1 g using an electronic top-pan balance) and allocated into 2 weight-matched treatment groups by a Statistician.
# Dosing began at approximately 08:45 h each day (0 h), i.e., so the mid-point of dosing was approximately at the time of lights out. This strategy was taken to maximize the impact of the drugs on food intake. Dosing continued for 7 consecutive days and rats were weighed (to the nearest 0.1 g) every day at 0 h. Prior to and at the completion of each dosing session animals were examined and any overt behavioral/physiological effects or other relevant observations regarding the condition of the animals was recorded manually. […] and food intake were assessed daily.
# Dosing began at approximately 08:45 h each day (0h), i.e., the mid-point of dosing was approximately at the time of lights out. Body weight, food and water intake was recorded daily at the time of dosing. All rats were observed before and after dosing and comments on condition were noted as appropriate. On the afternoon of Day 14 (approx. 16:00) animals were fasted to a timed schedule. The experiment ended the following morning on Day 15. On the morning of Day 15, final readings were undertaken 16 h post-fast (i.e., body weight measurements). Animals were then dosed (as described). Four hours later, two blood samples (20 µL and 1 mL) were taken from the lateral tail vein into tubes containing lithium heparin. The 20 µL sample was stored frozen (whole blood) prior to determination of HbAlc (Roche Tina-quant A2c Gen 3, Cobas C111). […] Animals were then terminated by a Schedule 1 method (exposure to an increasing concentration of CO2 with death confirmed by cervical dislocation). A terminal blood sample (circa 4 mL) was taken into EDTA-coated tube and a single plasma aliquot (approximately 1 mL) was stored frozen (approx. -80° C.) in a clean aliquot tube. The liver was dissected and the caudate lobe removed. Both the caudate lobe and the remaining liver was weighed and stored frozen separately (on dry ice and then transferred to a freezer at approx. -80° C.). The caudate lobe underwent further analysis of liver triglycerides. Carcasses were stored frozen (approx. -20° C.) for potential body composition analysis. Metabolic parameters including fasting glucose and insulin levels, liver triglycerides and body fat composition were determined at the end of the study.
# [3] = Food effect on the pharmacokinetics of 50 mg tablet (Example 10); settings: 50 mg Compound 1 tablet
# Description: Methods: The study used an open-label randomized 2-period crossover design in 20 healthy volunteers. Subjects were fasted overnight then randomly assigned to 1 of 2 dosing sequences, A ➔ B or B ➔ A, where A was the fasted condition and B was the fed condition. […] The fed and fasted dosing periods were separated by one week. Serial plasma samples from each period were collected for PK analysis.
# Solid phase extraction was used for sample cleanup. Stable isotope-labeled internal standards were used for corresponding analytes. Noncompartment PK parameters were calculated using Phoenix WinNonlin® software.
# [4] = Week 1 (Day 1-8), Olanzapine 3 mg/kg po
# [5] = Week 2 (Day 8-13), after olanzapine Day 1-7, 3 mg/kg po
# [6] = Week 2 (Day 8-14), continued Olanzapine 3 mg/kg po
# [7] = from Day 8, after olanzapine Day 1-7, 3 mg/kg po
smiles,measurement,setting,value
"Cc1cc2c(s1)Nc1ccccc1N=C2N1CCN(C)CC1 [Olanzapine, olanzapine]",Fat in carcass % change vs vehicle,[1],8.8%
same,Fat in carcass Difference vs vehicle,[1],1.4%
same,"Fat in carcass, Mean",[1],16.9%
same,Fat per rat % change vs vehicle,[1],12.4%
same,Fat per rat Difference vs vehicle,[1],5.2 g
same,"Fat per rat, Mean",[1],47.0 g
same,Liver Total triglycerides Mean,[1],227.46 µmol
same,Liver Total triglycerides vs vehicle,[1],85.6
same,Liver triglycerides % vs vehicle,[1],77.1%
same,"Liver triglycerides, Mean",[1],25.07 µmol/g
same,Protein in carcass % change vs vehicle,[1],-1.8%
same,Protein in carcass Difference vs vehicle,[1],-0.38%
same,"Protein in carcass, Mean",[1],20.46%
same,Protein per rat % change vs vehicle,[1],3.5%
same,Protein per rat Difference vs vehicle,[1],1.9 g
same,"Protein per rat, Mean",[1],56.9 g
same,Water in carcass % change vs vehicle,[1],-1.4%
same,Water in carcass Difference vs vehicle,[1],-0.8%
same,"Water in carcass, Mean",[1],59.9%
same,Water per rat % change vs vehicle,[1],3.6%
same,Water per rat Difference vs vehicle,[1],5.8 g
same,"Water per rat, Mean",[1],166.5 g
same,Daily food intake % change,[1]; Overall (Day 1-13),13.6%
same,Daily food intake Difference,[1]; Overall (Day 1-13),2.0 g/day
same,Daily food intake Mean,[1]; Overall (Day 1-13),16.4 g/day
same,Changes in body weights Difference vs vehicle,[1]; Overall (Day 1-14),21.5 g
same,Changes in body weights Mean,[1]; Overall (Day 1-14),33.2 g
same,"increase in body weight, previously shown in-house in this model",[2]; Olanzapine 3 mg/kg po,4-6%
same,"Averages of daily food intakes, Difference vs Vehicle (A)","[2]; Week 1 (Day 1-7), 3 mg/kg po",1.90 g/day
same,"Averages of daily food intakes, Mean","[2]; Week 1 (Day 1-7), 3 mg/kg po",17.21 g/day
same,Changes in body weights Difference vs Vehicle (A),[2]; [4],13.07 g
same,Changes in body weights Mean,[2]; [4],25.48 g
same,"Averages of daily food intakes, Difference vs Vehicle (A)",[2]; [5],1.60 g/day
same,"Averages of daily food intakes, Mean",[2]; [5],16.73 g/day
same,Changes in body weights Difference vs Vehicle (A),[2]; [6],7.55 g
same,Changes in body weights Mean,[2]; [6],16.70 g
same,"Fat in carcass, % change vs Vehicle (A)",[2]; [7],18.3%
same,"Fat in carcass, Difference vs Vehicle (A)",[2]; [7],2.4%
same,"Fat in carcass, Mean",[2]; [7],15.8%
same,"Fat per rat, % change vs Vehicle (A)",[2]; [7],22.7%
same,"Fat per rat, Difference vs Vehicle (A)",[2]; [7],8.0 g
same,"Fat per rat, Mean",[2]; [7],43.3 g
same,"Final carcass weight, % change vs Vehicle (A)",[2]; [7],4.1%
same,"Final carcass weight, Mean",[2]; [7],271.9 g
same,"Liver triglycerides (µmol total), % vs Vehicle (A)",[2]; [7],100.4%
same,"Liver triglycerides (µmol/g), % vs Vehicle (A)",[2]; [7],100.0%
same,"Liver triglycerides, Mean",[2]; [7],348 µmol total
same,"Protein in carcass, % change vs Vehicle (A)",[2]; [7],-2.4%
same,"Protein in carcass, Difference vs Vehicle (A)",[2]; [7],-0.49%
same,"Protein in carcass, Mean",[2]; [7],20.24%
same,"Protein per rat, % change vs Vehicle (A)",[2]; [7],1.6%
same,"Protein per rat, Difference vs Vehicle (A)",[2]; [7],0.9 g
same,"Protein per rat, Mean",[2]; [7],55.0 g
same,"Water in carcass, % change vs Vehicle (A)",[2]; [7],-3.6%
same,"Water in carcass, Difference vs Vehicle (A)",[2]; [7],-2.2%
same,"Water in carcass, Mean",[2]; [7],60.4%
same,"Water per rat, % change vs Vehicle (A)",[2]; [7],0.3%
same,"Water per rat, Difference vs Vehicle (A)",[2]; [7],0.6 g
same,"Water per rat, Mean",[2]; [7],163.9 g
NC[C@@H]1OCCc2ccsc21 [metabolite],geometric mean ratio for AUC0-∞ (fed/fasted),[3],98.29%
same,geometric mean ratio of Cmax (fed/fasted),[3],94.77%
same,"ratio of N-desmethyl active metabolite to parent Compound 1, fed versus fasted",[3],no change
